Results as given in patent US9351486B2, “Combinations of derivatized saccharide surfactants and etheramine oxide surfactants as herbicide adjuvants” (Monsanto Technology LLC, priority 2008, dated 2016).

Legend:
Format in all cases: in vivo
[1] = test system: LOLMU, Italian ryegrass (Lolium multiflorum Lam.); assay: Greenhouse herbicidal efficacy on LOLMU; details: for Application rate required for 85% control, LOLMU: calculated from rates 100, 200 and 400 g a.e./ha; for Average % control, LOLMU: average for 100, 200 and 400 g a.e./ha application rates
Protocol: (§1) Spray compositions of the Examples, containing an exogenous chemical, such as glyphosate potassium salt, in addition to the excipient ingredients listed, were evaluated for herbicidal efficacy according to the following method.
(§2) The amount of exogenous chemical was selected to provide the desired rate in grams per hectare (g/ha) when applied in a spray volume of 93 l/ha. Several exogenous chemical rates were applied for each composition. Thus, except where otherwise indicated, when spray compositions were tested, the concentration of exogenous chemical varied in direct proportion to exogenous chemical rate, but the concentration of excipient ingredients was held constant across different exogenous chemical rates.
(§3) Concentrate compositions were tested by dilution, dissolution or dispersion in water to form spray compositions. In these spray compositions prepared from concentrates, the concentration of excipient ingredients varied with that of exogenous chemical.
(§4) The herbicidal effectiveness data set forth herein report “inhibition” as a percentage following a standard procedure in the art which reflects a visual assessment of plant mortality and growth reduction by comparison with untreated plants, made by technicians specially trained to make and record such observations. In all cases, a single technician makes all assessments of percent inhibition within any one experiment or trial. Such measurements are relied upon and regularly reported by Monsanto Company in the course of its herbicide business.
(§5) The efficacy of potassium glyphosate formulations containing an APG surfactant and an EAO surfactant in an APG:EAO weight ratio of 4:1 and a glyphosate a.e. to total surfactant weight ratio of about 2.9:1 were evaluated in greenhouse trials. Also evaluated were potassium glyphosate compositions containing either an alkylpolyglucoside surfactant (designated as “Surfactant L” and “Surfactant N”) or an alkoxylated etheramine oxide surfactant (designated as “Surfactant G”) wherein the weight ratio of glyphosate a.e. to surfactant was about 2.9:1. Finally, the efficacy of potassium glyphosate not containing a surfactant (K-GLY) and comparative compositions 139R8H and 294T6K were also evaluated. The efficacy of each formulation, surfactant and comparative composition was evaluated at application rates of 100, 200 and 400 g glyphosate a.e. per hectare.
(§6) The efficacy of potassium glyphosate formulations containing various APG surfactants and an EAO surfactant in an APG:EAO weight ratios and glyphosate a.e. to total surfactant weight ratios (Gly:Surf) as indicated in the tables below. Finally, the efficacy of comparative standard compositions 139R8H and 294T6K were also evaluated. The efficacy of each formulation, surfactant and comparative composition was evaluated at application rates of 100, 200 and 400 g glyphosate a.e. per hectare.

[2] = test system: CHEAL, common lambsquarters (Chenopodium album L.); assay: Greenhouse herbicidal efficacy on CHEAL
Protocol: as §1, §2, §3, §4

[3] = test system: ABUTH, velvetleaf (Abutilon theophrasti Medik.); assay: Greenhouse herbicidal efficacy on ABUTH; details: for Average % control, ABUTH: average for 100, 200 and 400 g a.e./ha application rates
Protocol: as §1, §2, §3
(§7) The herbicidal effectiveness data set forth herein report “inhibition” as a percentage following a standard procedure in the art which reflects a visual assessment of plant mortality and growth reduction by comparison with untreated plants, made by technicians specially trained to make and record such observations. In all cases, a single technician makes all assessments of percent inhibition within any one experiment or trial. […]
(§8) The efficacy of formulations containing potassium glyphosate and an APG surfactant (formulation 179W2N) or an EAO surfactant (formulation 179R6U) in a weight percent ratio of glyphosate a.e. to surfactant of 4:1 was evaluated in greenhouse trials as compared to compositions 276U4D, 351L9P, 294T6K and K-GLY. The efficacy of each formulation, surfactant and comparative composition was evaluated at application rates of 100, 200 and 400 g glyphosate a.e. per hectare and the results are reported in Table ET8A wherein APG:EAO is the weight ratio of alkylpolyglucoside (APG) surfactant to alkoxylated amine oxide (EAO) surfactant and Gly:Surf is the weight ratio of glyphosate a.e. to total surfactant. […]

[4] = test system: LOLMG, annual ryegrass; assay: Greenhouse herbicidal efficacy on LOLMG
Protocol: as §1, §2, §3, §7, §8

[5] = test system: VIOAR, Field violet (Viola arvensis Murr.); assay: Greenhouse herbicidal efficacy on VIOAR
Protocol: as §1, §2, §3, §4, §5
(§9) The efficacy of potassium glyphosate formulations containing various ratios of APG surfactants to EAO surfactants were evaluated in greenhouse trials as compared to comparative compositions 139R8H and 276U4D. The efficacy of each formulation, surfactant and comparative composition was evaluated at application rates of 200, 400 and 600 g glyphosate a.e. per hectare and the results are reported in Table ET4A wherein APG:EAO is the weight ratio of APG surfactant to EAO surfactant and Gly:Surf is the weight ratio of glyphosate a.e. to total surfactant.
The efficacy of potassium glyphosate formulations containing Atplus 452 and EAO surfactants were evaluated in greenhouse trials. The efficacy of each formulation, surfactant and comparative composition was evaluated at application rates of 100, 200, 300 and 400 g glyphosate a.e. per hectare and the results are reported in Table ET5A wherein APG:EAO is the weight ratio of APG surfactant to EAO surfactant and Gly:Surf is the weight ratio of glyphosate a.e. to total surfactant.

[6] = test system: MALSI, cheeseweed; assay: Greenhouse herbicidal efficacy on MALSI; details: Example ET9; average for 100, 200 and 400 g a.e./ha application rates
Protocol: as §1
The amount of exogenous chemical was selected to provide the desired rate in grams per hectare (g/ha) when applied in a spray volume of 93 l/ha. Several exogenous chemical rates were applied for each composition. […]
as §9, with “surfactant. For each plant species, efficacy results are reported as the average % control for the three application rates (Table ET4a) and the calculated application rate (g a.e./ha) that must be applied to achieve 85% control (Table ET4b).” for “surfactant.”

[7] = test system: SINAR, wild mustard (Sinapis arvensis L.); assay: Greenhouse herbicidal efficacy on SINAR
Protocol: as §1, §2, §3, §4, §5, §6, §9

[8] = Example ET1, greenhouse, average of the three application rates
[9] = Example ET3, average for 100, 200 and 400 g a.e./ha application rates
[10] = Example ET3, calculated from rates 100, 200 and 400 g a.e./ha
[11] = Example ET6, average for 200, 400 and 600 g a.e./ha application rates
[12] = Example ET6, calculated from rates 200, 400 and 600 g a.e./ha
[13] = Example ET2, calculated from rates 100, 200 and 400 g a.e./ha
[14] = Example ET5, average for 100, 200, 300 and 400 g a.e./ha application rates
[15] = Example ET5, calculated from rates 100, 200, 300 and 400 g a.e./ha
[16] = Example ET9, average for 100, 200 and 400 g a.e./ha application rates
[17] = Example ET1, calculated from rates 100, 200 and 400 g a.e./ha

O=C(O)CNCP(=O)([O-])O.[K+] [K-GLY, potassium glyphosate]
Application rate required for 85% control, LOLMU ([1]; Example ET1): >400.0 g a.e./ha
Average % control for 100, 200 and 400 g a.e./ha application rates, LOLMU [1, 8]: 40.8%
Average % control, LOLMU ([1]; Example ET2): 58.1%
Application rate required for 85% control, LOLMU ([1]; Example ET2): >400.0 g a.e./ha
Average % control, LOLMU ([1]; Example ET3): 27.9%
Application rate required for 85% control, LOLMU ([1]; Example ET3): >400.0 g a.e./ha
LOLMU 23 DAT (ave. control) ([1]; Example ET7, 23 DAT, average for 50, 100 and 300 g a.e./ha application rates): 48.3%
LOLMU 23 DAT (g a.e./ha for 85% control) ([1]; Example ET7, 23 DAT, calculated from rates 50, 100 and 300 g a.e./ha): >300.0 g a.e./ha
Average % control, CHEAL [2, 9]: 5.0%
Application rate required for 85% control, CHEAL [2, 10]: >400.0 g a.e./ha
CHEAL (ave. cntrl) [2, 11]: 33.3%
CHEAL (g a.e./ha for 85% control) [2, 12]: >600.0 g a.e./ha
Average % control, ABUTH ([3]; Example ET2): 40.0%
Application rate required for 85% control, ABUTH [3, 13]: 400.0 g a.e./ha
Average % control, ABUTH ([3]; Example ET9): 27.2%
Average % control, LOLMG [4, 14]: 42.5%
Application rate required for 85% control, LOLMG [4, 15]: >400.0 g a.e./ha
Average % control, LOLMG [4, 16]: 37.8%
Application rate required for 85% control, VIOAR [5, 17]: >400.0 g a.e./ha
Average % control for 100, 200 and 400 g a.e./ha application rates, VIOAR [5, 8]: 39.2%
Average % control, VIOAR [5, 9]: 27.5%
Application rate required for 85% control, VIOAR [5, 10]: >400.0 g a.e./ha
Average % control, VIOAR [5, 14]: 34.7%
Application rate required for 85% control, VIOAR [5, 15]: >400.0 g a.e./ha
VIOAR (ave. cntrl) [5, 11]: 31.7%
VIOAR (g a.e./ha for 85% control) [5, 12]: >600.0 g a.e./ha
Average % control, VIOAR [5, 16]: 36.7%
Average % control, MALSI [6]: 22.8%
Application rate required for 85% control, SINAR [7, 17]: >400.0 g a.e./ha
Average % control for 100, 200 and 400 g a.e./ha application rates, SINAR [7, 8]: 67.5%
Average % control, SINAR ([7]; Example ET2, average for 100, 200 and 400 g a.e./ha application rates): 64.1%
Application rate required for 85% control, SINAR [7, 13]: >400.0 g a.e./ha
Average % control, SINAR [7, 14]: 72.5%
Application rate required for 85% control, SINAR [7, 15]: 366.7 g a.e./ha
SINAR 10 DAT (ave. Ctrl) ([7]; Example ET7, 10 DAT, average for 50, 100 and 300 g a.e./ha application rates): 74.6%
SINAR 10 DAT (g a.e./ha for 85% control) ([7]; Example ET7, 10 DAT, calculated from rates 50, 100 and 300 g a.e./ha): 227.3 g a.e./ha
